As usually defined, the IC50 is the point on the concentration scale where inhibition reaches its midpoint.

A value given as a limit tells only on which side of the number the result lay.

Among the data in patent US8664257B2, “Oxygen-substituted 3-heteroaroylamino-propionic acid derivatives and their use as pharmaceuticals” (Sanofi, priority 2010, dated 2014) are IC50 values, retold here.

One test deals with T1, Recombinant human cathepsin A (Homo sapiens, UniProt P10619).
T1 construct: Recombinant human cathepsin A (residues 29-480, with a C-terminal 10-His tag); 10-His (C); purchased R&D Systems 1049-SE
T1 sequence (P10619 29-312 limits assumed): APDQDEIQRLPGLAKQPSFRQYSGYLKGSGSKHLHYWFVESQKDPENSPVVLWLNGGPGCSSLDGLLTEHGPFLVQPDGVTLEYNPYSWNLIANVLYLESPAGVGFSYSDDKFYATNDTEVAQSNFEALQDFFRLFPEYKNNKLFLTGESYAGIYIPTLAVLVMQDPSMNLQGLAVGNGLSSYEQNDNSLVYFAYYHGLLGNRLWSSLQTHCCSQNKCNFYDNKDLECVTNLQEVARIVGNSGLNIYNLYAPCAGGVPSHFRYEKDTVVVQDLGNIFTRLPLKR
T1 sequence (P10619 327-480 limits assumed): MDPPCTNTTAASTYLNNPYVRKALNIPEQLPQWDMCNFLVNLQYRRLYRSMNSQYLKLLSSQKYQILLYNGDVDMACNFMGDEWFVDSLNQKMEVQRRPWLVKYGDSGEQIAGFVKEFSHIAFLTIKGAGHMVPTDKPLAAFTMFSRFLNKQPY
Kind of test: Cathepsin A inhibitory activity. The test is classed as biochemical. The note with it: pharmacological test "Cathepsin A inhibitory activity"; IC50 given as class A/B/C; read-out: Activity (2): Cathepsin A inhibitory activity, IC50 class. In outline:
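Read-out was microfluidic separation of cleaved vs. uncleaved Bodipy FL-bradykinin (2 μM), giving turnover, % inhibition and IC50. Compound and 833 ng/ml enzyme met for 15 min RT in pH 5.5 MES/DTT before substrate (15 min RT). The 29-480 His-tagged human enzyme was first activated by cathepsin L, then E-64 (10 μM).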
As for `O=C(O)CC(NC(=O)c1cc(O)n(-c2cccc(Cl)c2)n1)c1ccc(-c2ccc(F)cc2)cc1` (centres unmarked) [Example 267], the IC50 fell in the range of 1000 to 30000 nM.
With `O=C(O)CC(NC(=O)c1cc(O)n(-c2ccc(F)cc2F)n1)c1ccc(-c2ccccc2)cc1` (centres unmarked) [Example 197], the IC50 was 100 to 1000 nM.
Regarding `Cc1cccc([C@H](CC(=O)O)NC(=O)c2cc(O)n(-c3ccc(F)cc3F)n2)c1` [Example 190], the IC50 lay within 100 to 1000 nM.
On the same count and under the same terms, as for `COc1ccc(C(CC(=O)O)NC(=O)c2cc(O)n(-c3cccc(Cl)c3)n2)c(C)c1` (centres unmarked) [Example 250], the figure is 100 to 1000 nM.
Turning to `Cc1ccccc1[C@H](CC(=O)O)NC(=O)c1cc(O)n(-c2cccnc2)n1` [Example 143], the IC50 was in the range of 1000 to 30000 nM.
Turning to `O=C(O)CC(NC(=O)c1cc(O)n(-c2cccc(Cl)c2)n1)c1cccc2c1OCO2` (centres unmarked) [Example 249], the IC50 lay within 100 to 1000 nM.
On the same count and under the same terms, in the case of `COc1ccc(Cl)cc1C(CC(=O)O)NC(=O)c1cc(O)n(-c2ccccc2Cl)n1` (centres unmarked) [Example 209] it was 100 to 1000 nM.

Still in this test, the particulars now being: read-out: Activity (2): Cathepsin A inhibitory activity (IC50 class).
On to `COc1ccccc1[C@H](CC(=O)O)NC(=O)c1cc(OCC2CC2)n(-c2ccccc2F)n1` [Example 687], for which the IC50 is 100 to 1000 nM.
Same read-out and setting: as for `CCC(O)(CC)COc1cc(C(=O)N[C@@H](CC(=O)O)c2ccccc2C)nn1-c1ccccc1F` [Example 756], the figure is less than 100 nM.
Same read-out and setting: as for `O=C(O)C[C@H](NC(=O)c1cc(OCC2CC2)n(-c2ccccc2F)n1)c1ccccc1F` [Example 699], the figure is 100 to 1000 nM; as for `CCC(C)(O)COc1cc(C(=O)N[C@@H](CC(=O)O)c2ccccc2C)nn1-c1ccccc1F` (some centres unmarked) [Example 750], less than 100 nM; as for `Cc1ccc(C(CC(=O)O)NC(=O)c2cc(OCC3CC3)n(-c3ccccc3F)n2)c(C)c1` (centres unmarked) [Example 686], less than 100 nM.
Take `Cc1ccccc1[C@H](CC(=O)O)NC(=O)c1cc(OC[C@@H]2CCC(=O)N2)n(-c2ccccc2F)n1` [Example 654]: the IC50 was less than 100 nM.
On the same count and under the same terms, in the case of `CC(C)(O)COc1cc(C(=O)N[C@@H](CC(=O)O)c2ccc(Cl)cc2Cl)nn1-c1ccccc1F` [Example 751, (S)-3-(2,4-Dichloro-phenyl)-3-{[1-(2-fluoro-phenyl)-5-(2-hydroxy-2-methyl-propoxy)-1H-pyrazole-3-carbonyl]-amino}-propionic acid] it was less than 100 nM; in that of `COc1cc(C(=O)NC(CC(=O)O)c2ccc(C)cc2C)nn1-c1ccccc1F` (centres unmarked) [Example 666], less than 100 nM; in that of `CC(C)(C)C(=O)COc1cc(C(=O)N[C@@H](CC(=O)O)c2ccccc2Cl)nn1-c1ccccc1F` [Example 777, (S)-3-(2-Chloro-phenyl)-3-{[5-(3,3-dimethyl-2-oxo-butoxy)-1-(2-fluoro-phenyl)-1H-pyrazole-3-carbonyl]-amino}-propionic acid], less than 100 nM.
Same read-out and setting: in the case of `Cc1ccccc1[C@H](CC(=O)O)NC(=O)c1cc(O)n(-c2c(F)cccc2F)n1` [Example 588] it was 100 to 1000 nM.
On the same count and under the same terms, in the case of `CCC(O)COc1cc(C(=O)N[C@@H](CC(=O)O)c2ccccc2C)nn1-c1ccccc1F` (some centres unmarked) [Example 755] it was less than 100 nM.

The same test, now with this note: read-out: Activity (2): Cathepsin A inhibitory activity, IC50 class.
Take `O=C(O)CC(NC(=O)c1cc(O)n(-c2ccccc2)n1)c1cc(F)cc(F)c1` (centres unmarked) [Example 70]: the IC50 was in the range of 1000 to 30000 nM.
Same read-out and setting: as for `Cc1ccccc1[C@H](CC(=O)O)NC(=O)c1cc(O)n(-c2ccccc2Cl)n1` [Example 77], the figure is less than 100 nM; as for `CC(C)(C)[C@H](O)COc1cc(C(=O)N[C@@H](CC(=O)O)c2cccc(Cl)c2)nn1-c1ccccc1F` [Example 809, (S)-3-(3-Chloro-phenyl)-3-{[1-(2-fluoro-phenyl)-5-((S)-2-hydroxy-3,3-dimethyl-butoxy)-1H-pyrazole-3-carbonyl]-amino}-propionic acid], less than 100 nM; as for `CC(C)C(C)(O)COc1cc(C(=O)N[C@@H](CC(=O)O)c2ccccc2C(F)(F)F)nn1-c1ccccc1F` (stereo partly drawn) [Example 812, (S)-3-{[1-(2-Fluoro-phenyl)-5-(2-hydroxy-2,3-dimethyl-butoxy)-1H-pyrazole-3-carbonyl]-amino}-3-(2-trifluoromethyl-phenyl)-propionic acid], less than 100 nM.
The same measure, in the same setting: as for `O=C(O)CC1(NC(=O)c2cc(O)n(-c3ccccc3)n2)CCCC1` [Example 5], the figure is 1000 to 30000 nM; as for `CC(C)(C)[C@](C)(O)COc1cc(C(=O)N[C@@H](CC(=O)O)c2cccc(F)c2)nn1-c1ccccc1F` [Example 819, (S)-3-(3-Fluoro-phenyl)-3-{[1-(2-fluoro-phenyl)-5-((S)-2-hydroxy-2,3,3-trimethyl-butoxy)-1H-pyrazole-3-carbonyl]-amino}-propionic acid], less than 100 nM.
Same read-out and setting: in the case of `O=C(O)C[C@H](NC(=O)c1cc(O)n(-c2ccccc2Cl)n1)c1ccc(C(F)(F)F)cc1` [Example 110] it was 100 to 1000 nM; in that of `Cc1cccc([C@H](CC(=O)O)NC(=O)c2cc(OCC(=O)C(C)(C)C)n(-c3ccccc3F)n2)c1` [Example 805, (S)-3-{[5-(3,3-Dimethyl-2-oxo-butoxy)-1-(2-fluoro-phenyl)-1H-pyrazole-3-carbonyl]-amino}-3-m-tolyl-propionic acid], less than 100 nM; in that of `N#Cc1cccc([C@H](CC(=O)O)NC(=O)c2cc(O)n(-c3ccc(F)cc3F)n2)c1` [Example 381], 100 to 1000 nM.
For the compound `COc1ccc(C(CC(=O)O)NC(=O)c2cc(O)n(-c3cccc(F)c3)n2)c(OC)c1` (centres unmarked) [Example 306], the IC50 lay in the range of 100 to 1000 nM.
The same measure, in the same setting: in the case of `CC(C)[C@](C)(O)COc1cc(C(=O)N[C@@H](CC(=O)O)c2cccc(Cl)c2)nn1-c1ccccc1F` [Example 877, (S)-3-(3-Chloro-phenyl)-3-{[1-(2-fluoro-phenyl)-5-((S)-2-hydroxy-2,3-dimethyl-butoxy)-1H-pyrazole-3-carbonyl]-amino}-propionic acid] it was 100 to 1000 nM; in that of `O=C(O)C[C@H](NC(=O)c1cc(O)n(-c2ccc(F)cc2)n1)c1cccc(F)c1` [Example 349], 100 to 1000 nM; in that of `COc1ccc(C(CC(=O)O)NC(=O)c2cc(O)n(-c3ccccc3)n2)cc1` (centres unmarked) [Example 3, 3-[(5-Hydroxy-1-phenyl-1H-pyrazole-3-carbonyl)-amino]-3-(4-methoxy-phenyl)-propionic acid], 100 to 1000 nM.
The same measure, in the same setting: in the case of `N#Cc1ccc([C@H](CC(=O)O)NC(=O)c2cc(O)n(-c3ccccc3)n2)cc1` [Example 101] it was 100 to 1000 nM; in that of `Cc1ccc(C(CC(=O)O)NC(=O)c2cc(O)n(-c3cc(C)ccc3C)n2)cc1` (centres unmarked) [Example 50], 1000 to 30000 nM.

The same test, now with this note: recombinant human cathepsin A 833 ng/ml, Bodipy FL-labeled bradykinin 2 μM, pH 5.5; read-out: CATH-A IC50.
As for `Cc1ccc(F)cc1C(CC(=O)O)NC(=O)c1cc(O)n(-c2ccccc2)n1` (centres unmarked) [Example 497, 3-(5-Fluoro-2-methyl-phenyl)-3-[(5-hydroxy-1-phenyl-1H-pyrazole-3-carbonyl)-amino]-propionic acid], the IC50 was 145 nM.
The same measure, in the same setting: as for `O=C(O)CC(NC(=O)c1cc(O)n(-c2ccccc2Cl)n1)c1cccc2c1OC(F)(F)O2` (centres unmarked) [Example 503, 3-{[1-(2-Chloro-phenyl)-5-hydroxy-1H-pyrazole-3-carbonyl]-amino}-3-(2,2-difluoro-benzo[1,3]dioxol-4-yl)-propionic acid], the figure is 391 nM.

The same test, now with this note: recombinant human cathepsin A; read-out: Activity (2): Cathepsin A inhibitory activity, IC50 class.
Take `Cc1ccc(F)cc1C(CC(=O)O)NC(=O)c1cc(O)n(-c2ccccc2)n1` (centres unmarked) [Example 497, 3-(5-Fluoro-2-methyl-phenyl)-3-[(5-hydroxy-1-phenyl-1H-pyrazole-3-carbonyl)-amino]-propionic acid]: the IC50 was in the range of 100 to 1000 nM.
With `O=C(O)CC(NC(=O)c1cc(O)n(-c2ccccc2Cl)n1)c1cccc2c1OC(F)(F)O2` (centres unmarked) [Example 503, 3-{[1-(2-Chloro-phenyl)-5-hydroxy-1H-pyrazole-3-carbonyl]-amino}-3-(2,2-difluoro-benzo[1,3]dioxol-4-yl)-propionic acid], the IC50 was 100 to 1000 nM.
As to `O=C(O)CC(NC(=O)c1cc(O)n(-c2cccc(F)c2)n1)c1cc(F)ccc1Cl` (centres unmarked) [Example 483], the IC50 is 100 to 1000 nM.
